In US20230270802A1, “ANTIVIRAL PHARMACEUTICAL COMPOSITION” (GSK CONSUMER HEALTHCARE SARL, priority 2020, published 2023):

Assays:
Type in all cases: cell-based
human coronavirus OC43 = experiment: OC43 viral genome copy number in MucilAir nasal epithelium, Example 1; conditions: for Mean viral genome copy number, Log 10 ((Copies/ml) + 1): apical wash, 0.00 = below detection limit
[1] = tested on: MucilAir nasal human 3D epithelial model; experiment: Cilia beating frequency (CBF), Example 1; conditions: T96h, OC43 infected inserts; Mock 8.5 Hz
Experimental: Cilia beating frequency (CBF) is a parameter that indicates if the nasal epithelia is healthy and carrying out its physiologic function of mucus transport. CBF was measured by a dedicated setup for this purpose. The system consists of three parts: a Sony XCD V60 camera connected to an Olympus BX51 microscope, a PCI card and a specific package of software. The cilia beating frequency is expressed in Hz. […] CBF was then calculated using relevant software. It should be pointed out that CBF values may be subject to fluctuations due to parameters such as temperature, mucus viscosity or liquid applied on the apical surface of the cell model and observed values should be compared to a control condition in each experiment.
At T96h, the ciliary beating frequency (CBF) and the mucociliary clearance (MCC) of all inserts were measured. 200 µl of culture medium was added apically to all inserts and inserts were let sit for 20 minutes at 34° C. During this time, TEER of all inserts was measured. This apical washing liquid was then removed and was stored at -80° C. until the virus copy number was determined. The basal culture medium was removed and stored. 50 µl of the basal culture medium of all inserts was used for the LDH assay.

[2] = tested on: MucilAir nasal human 3D epithelial model; experiment: Trans-epithelial electronic resistance (TEER), Example 1; conditions: all measured timepoints
Description: Trans-epithelial electronic resistance (TEER) is a dynamic parameter that reflects the state of epithelia and is typically between 200 to 600 Ω.cm^2. An increase of the TEER value reflects a blockage of the ion channel activities of the MucilAir cell culture. A notable decrease of the TEER values, but with the value still above 100 Ω.cm^2 can be observed in certain cases and indicates an activation of the ion channels. Disruption of cellular junction or holes in the epithelia result in TEER values below 100 Ω.cm^2. When an epithelium is damaged, a decrease of TEER would be associated with an increase of LDH release or a decrease of the cell viability. In this example, TEER was measured after addition of 200 µl of culture medium to the apical compartment of the inserts (i.e. during the washing step). TEER was measured with an EVOMX volt-ohm-meter (World Precision Instruments UK, Stevenage) for each condition. Resistance values (Q) were converted to TEER (Ω.cm^2) using the following formula: TEER (Ω.cm^2) = (resistance value (Ω) - 100 (Ω)) x 0.33 (cm^2), where 100 Q is the resistance of the membrane and 0.33 cm^2 is the total surface of the epithelium in one insert. The TEER measurement was conducted as follows: 200µl of culture medium was added on apical surface of each insert. The EVOMX was turned on. […] Then, the resistance (Q) was measured with the EVOMX in the Ohms measurement function.

| Compound | Mean viral genome copy number, Log 10 ((Copies/ml) + 1) (human coronavirus OC43; T4h) | Mean viral genome copy number, Log 10 ((Copies/ml) + 1) (human coronavirus OC43; T24h) | Mean viral genome copy number, Log 10 ((Copies/ml) + 1) (human coronavirus OC43; T48h) | Mean viral genome copy number, Log 10 ((Copies/ml) + 1) (human coronavirus OC43; T72h) | Mean viral genome copy number, Log 10 ((Copies/ml) + 1) (human coronavirus OC43; T96h) | Apical genome copy number in comparison to negative control (human coronavirus OC43; each timepoint T24h - T96h) | Cilia beating frequency (CBF) [1] | TEER [2] |
| --- | --- | --- | --- | --- | --- | --- | --- | --- |
| N#C[C@@]1(c2ccc3c(N)ncnn23)O[C@H](CO)[C@@H](O)[C@H]1O [Positive antiviral control, GS-441524] | 0.00 Log 10 ((Copies/ml) + 1) | 0.00 Log 10 ((Copies/ml) + 1) | 0.00 Log 10 ((Copies/ml) + 1) | 5.21 Log 10 ((Copies/ml) + 1) | 4.69 Log 10 ((Copies/ml) + 1) | statistically significantly reduced | about 15 Hz |  |
| Polyethylene glycol tert-octylphenyl ether [positive controls for cytotoxicity] |  |  |  |  |  |  |  | below 100 Ω.cm^2 |
